Kd and EC50 data for 21 compounds are collected here from patent US20240139185A1, “COMPOUNDS THAT PARTICIPATE IN COOPERATIVE BINDING AND USES THEREOF” (Revolution Medicines, Inc., priority 2018, published 2024).

One test concerns the target cyclophilin A (CYPA) (Homo sapiens, UniProt P62937). The test can be described thus: CYPA-compound binary complex formation by SPR. Conditions: read-out: CYPA Binding Affinity. How it is done:
In order to determine the affinity of compounds of the invention for cyclophilin A (CYPA), we employed surface plasmon resonance binding analysis using the following reagents, instruments and protocol as supplied by the instrument manufacturer.
Reagents and Instrument • 1. Instrument: Biacore S200 (GE Healthcare Life Sciences) • 2. Running buffer: 1×HBS-P+ (1×HBS supplemented with 0.05% Tween20), pH7.4, and 2% DMSO. • 3. Ligand: CypA-Avi • 4. Analyte: Serial dilution of WDB compounds from 50 μM to 0 μM, 2-fold dilution, 10 points (10 mM stock concentration). • 5. Sensor kit: Biotin CAPture Kit (BR28-9202-34, GE Healthcare Life Sciences) • 6. Regeneration buffer: 1 volume of 1 M NaOH and 3 volumes of 8 M guanidine hydrochloride (supplied with CAPture Kit, BR28-9202-34, GE Healthcare Life Sciences)
Experimental Procedure • 1. Capture of CAPreagent: 2 μl/min for 60 seconds. • 2. Immobilization of ligand CypA: Use Fc1 as the reference cell; immobilize CypA at 4 μg/ml using 5 μl/min flowrate on Fc2 (60s), Fc3 (80s) and Fc4 (80s), respectively. • 3. Binding of analytes: Inject WDB compound dilutions sequentially at 50 μl/min for association of 60 seconds. And then let it dissociates in buffer at 50 μl/min for 60 seconds. • 4. Regeneration: 2 injections of regeneration buffer at 30 μl/min for 60 seconds to regenerate the chip surface. • 5. Solvent correction: Run solvent correction at beginning and the end of the run. If run more than 6 compounds, add additional solvent correction every 6 compounds. • 6. Data fitting with built-in Biacore Evaluation Software: Steady-state fitting.
(In general: SPR reads the build-up and loss of mass on a sensor chip optically.)

The target of test [1] is T1, BRAF-GTP-KRAS-G12C complex (Homo sapiens, UniProt P01116+P62937, G12C).
T1 construct: 50 nM of His6-KRas G12C-GTP (1-169); 500 nM of tagless CypA (1-165)
Kind of test: KRAS-BRAF complex disruption through competition with CYPA-compound by TR-FRET. Conditions: biochemical BRAF-KRAS G12C-GTP disruption assay EC50, with CYPA. The procedure:
In this example, TR-FRET was used to measure the compound-facilitated disruption of a KRAS-BRAF complex. A mixture of tagless Cyclophilin A, His6-KRAS G12C-GMP-PNP, and GST-BRAF RAS binding domain was added to a 384-well assay plate containing compounds of the invention and incubated for 3 hours. A mixture of Anti-His Eu-W1024 and anti-GST allophycocyanin was then added and the reaction was incubated for an additional 1.5 hours. TR-FRET signal was read on an EnVision microplate reader (Perkin Elmer, Ex 320 nm, Em 665/615 nm). Compounds that facilitate disruption of a KRAS_BRAF complex were identified as those eliciting a decrease in the TR-FRET ratio relative to DMSO control wells. To determine the presenter-dependence of the compound-mediated KRAS-BRAF complex disruption, Cyclophilin A was left out of the initial incubation (see Table 5). To determine G12C specificity of the compound-mediated KRAS-BRAF complex disruption, wild-type KRAS was used instead of G12C KRAS (see Table 5).
Reagents and Instrument • Tagless CYPA; 519 μM in PBS buffer, pH 7.4 • GST BRAF; 110 μM in PBS buffer, pH 7.4 • His6-KRASG12C-GMP-PNP; 50 μM in PBS buffer, pH 7.4 • His6-KRASWT-GMP-PNP; 40 μM in PBS buffer, pH 7.4 • Anti-His Eu-W1024 (LANCE® Eu-W1024; Perkin Elmer) • Anti-GST allophycocyanin (Anti-GST IgG conjugated to SureLight®-Allophycocyanin; Perkin Elmer; Product Number AD0059G) • Test compounds, 10 mM in 100% DMSO • EnVision (Perkin Elmer) • Combi MultiDrop liquid dispenser with 8-channel small volume cassette • 384-well ProxiPlate (black)
Experimental Protocol • 1. Use Mosquito to dispense 100 nL/well of compounds (varying concentration in […]) into 384-well black ProxiPlate to make assay-ready-plate (ARP). • 2. Make assay buffer containing 25 mM Hepes pH 7.3, 100 mM NaCl, 5 mM MgCl2, 0.05% BSA, and 0.002% Tween-20. • 3. Make PRE-MIX A: delivers final concentrations of 50 nM of His6-KRas G12C-GTP (1-169) and 500 nM of tagless CypA (1-165) in assay buffer. • a. For presenter dependence experiments, omit addition of tagless CypA • b. For G12C/wt specificity experiments, substitute His6-KRas WT-GTP (1-169) for His6-KRas G12C-GTP (1-169) • 4. Use MultiDrop Combi to dispense PRE-MIX A into ARP, 7 μl/well. Incubate 3 hr at room temperature. • 5. Make PRE-MIX B: delivers final concentrations of 10 nM of anti-His Eu-W1024 and 50 nM of anti-GST APC. • 6. Use MultiDrop Combi to dispense PRE-MIX B into ARP, 3 μl/well. Shake briefly on Combi and incubate 1.5 hr at room temperature. • 7. Read on EnVision (Ex: 320 nm; Em1: 615 nm; Em2: 665 nm). • 8. Data is processed using Dotmatics. Curves are fit using a 4-parameter non-linear fit to determine the EC50 value for formation of the ternary complex.
(In general: Time-resolved FRET reads energy transfer from a long-lived donor to a nearby acceptor.)

pEC50, pKd: −log10 of the molar value.

Turning to `Cc1nc2ccc3cc2n1CC(C)(C)COC(=O)[C@@H]1CCCN(N1)C(=O)[C@@H](NC(=O)[C@H](C(C)C)N(C)C(=O)CNC(=O)CCl)Cc1cc(O)cc-3c1` [Compound 150], the pKd at cyclophilin A (CYPA) was 4.82 to 5.30. Also, the negative logarithm of the EC50 (pEC50) – broadly, the EC50 on a negative log10 scale, so that one unit is a factor of ten – in test [1] is 5.30 to 6.30.
Take `C=CC(=O)N1CCN([C@H](C(=O)N[C@H]2Cc3cncc(c3)-c3ccc4nc(CC)n(c4c3)CCCOC(=O)[C@@H]3CCCN(N3)C2=O)C(C)C)C1=O` [Compound 4, (2S)-2-(3-acryloyl-2-oxoimidazolidin-1-yl)-N-((6^3S,4S)-12-ethyl-5,7-dioxo-6^1,6^2,6^3,6^4,6^5,6^6-hexahydro-1^1H-8-oxa-1(6,1)-benzo[d]imidazola-6(1,3)-pyridazina-2(3,5)-pyridinacycloundecaphane-4-yl)-3-methylbutanamide]: the pKd at cyclophilin A (CYPA) is 4.82 to 5.30. For the same compound, the pEC50 in test [1] was less than 5.30.
For the compound `CC1=C(C)C(=O)N(CC(=O)N(C)[C@H](C(=O)N[C@H]2Cc3cc(O)cc(c3)-c3ccc4nc(C)n(c4c3)CC(C)(C)COC(=O)[C@@H]3CCCN(N3)C2=O)C(C)C)C1=O` [Compound 171], the pKd at cyclophilin A (CYPA) was 4.82 to 5.30. Also, the pEC50 in test [1] is 5.30 to 6.30.
With `CC(C)C(C(=O)NC1Cc2cc(O)cc(c2)-c2ccc3c(C#N)cn(c3c2)CCCOC(=O)C2CCCN(N2)C1=O)N(C)C(=O)C1CN(C(=O)CCl)C1` (centres unmarked) [Compound 101], at cyclophilin A (CYPA), the pKd was no less than 5.30. The same compound showed a pEC50 in test [1] of 5.30 to 6.30.
In the case of `Cc1nc2ccc3cc2n1CC(C)(C)COC(=O)[C@@H]1CCCN(N1)C(=O)[C@@H](NC(=O)[C@H](C(C)C)N(C)C(=O)CN1CC=CC1=O)Cc1cc(O)cc-3c1` [Compound 144], the pKd on cyclophilin A (CYPA) was 4.82 to 5.30. The same compound gave a pEC50 in test [1] of less than 5.30.
`C=CC(=O)N1CC(C(=O)N(C)[C@H](C(=O)N[C@H]2Cc3cc(O)cc(c3)-c3ccc4nc(C)n(c4c3)CC(C)(C)COC(=O)[C@@H]3CCCN(N3)C2=O)C(C)C)C1` [Compound 145]: the pKd at cyclophilin A (CYPA) was 4.82 to 5.30. In addition, the pEC50 in test [1] was 5.30 to 6.30.
The corresponding values for `Cc1nc2ccc3cc2n1CC(C)(C)COC(=O)[C@@H]1CCCN(N1)C(=O)[C@@H](NC(=O)[C@H](C(C)C)N1CCN(C(=O)CCl)CC1=O)Cc1cc(O)cc-3c1` [Compound 146] are 4.82 to 5.30 and 5.30 to 6.30.
Regarding `COc1ccccc1-c1nc2ccc3cc2n1CCCOC(=O)[C@@H]1CCCN(N1)C(=O)[C@@H](NC(=O)[C@H](C(C)C)N(C)C(=O)C1CN(C(=O)CCl)C1)Cc1cc(O)cc-3c1` [Compound 168], on cyclophilin A (CYPA), the pKd is no less than 5.30. Besides, the pEC50 in test [1] is no less than 6.30.
Regarding `CC1=C(C)C(=O)N(CC(=O)N(C)[C@H](C(=O)N[C@H]2Cc3cc(O)cc(c3)-c3ccc4ncn(c4c3)CCCOC(=O)[C@@H]3CCCN(N3)C2=O)C(C)C)C1=O` [Compound 153], the pKd on cyclophilin A (CYPA) was 4.82 to 5.30. This compound showed a negative-log EC50 (pEC50) in test [1] of less than 5.30.
Regarding `CC(C)[C@@H](C(=O)N[C@H]1Cc2cc(O)cc(c2)-c2ccc3ncn(c3c2)CCCOC(=O)[C@@H]2CCCN(N2)C1=O)N(C)C(=O)C1CN(C(=O)CCl)C1` [Compound 234, 1-(2-chloroacetyl)-N-((2S)-1-(((6^3S,4S)-2^5-hydroxy-5,7-dioxo-6^1,6^2,6^3,6^4,6^5,6-hexahydro-1^1H-8-oxa-1(6,1)-benzo[d]imidazola-6(1,3)-pyridazina-2(1,3)-benzenacycloundecaphane-4-yl)amino)-3-methyl-1-oxobutan-2-yl)-N-methylazetidine-3-carboxamide], the pKd on cyclophilin A (CYPA) is no less than 5.30.
Turning to `Cc1nc2ccc3cc2n1C[C@@H](C)COC(=O)[C@@H]1CCCN(N1)C(=O)[C@@H](NC(=O)[C@H](C(C)C)N(C)C(=O)C1CN(C(=O)CCl)C1)Cc1cc(O)cc-3c1` [Compound 148], the pKd on cyclophilin A (CYPA) is less than 4.82. This compound also showed a pEC50 in test [1] of 5.30 to 6.30.
For the compound `C=CC(=O)N1CCN([C@H](C(=O)N[C@H]2Cc3cc(O)cc(c3)-c3ccc4nc(CC)n(c4c3)CCCOC(=O)[C@@H]3CCCN(N3)C2=O)C(C)C)C1=O` [Compound 141], the pKd on cyclophilin A (CYPA) was no less than 5.30. In test [1], this compound showed a pEC50 of 5.30 to 6.30.
With `CC1CCn2cnc3ccc(cc32)-c2cc(O)cc(c2)CC(NC(=O)C(C(C)C)N(C)C(=O)C2CN(C(=O)CCl)C2)C(=O)N2CCCC(N2)C(=O)O1` (mixture of isomers) [Compound 140], at cyclophilin A (CYPA), the pKd was less than 4.82. This compound showed a pEC50 in test [1] of 5.30 to 6.30.
For `C=CC(=O)N1CCN([C@H](C(=O)N[C@H]2Cc3cc(O)cc(c3)-c3ccc4c(=O)n(C)n(c4c3)CCCOC(=O)[C@@H]3CCCN(N3)C2=O)C(C)C)C1=O` [Compound 174], the pKd at cyclophilin A (CYPA) is no less than 5.30. In test [1], this compound showed a pEC50 of less than 5.30.
Regarding `CC(C)C(C(=O)NC1Cc2cc(O)cc(c2)-c2ccc3c(C#N)cn(c3c2)CC(C)(C)COC(=O)C2CCCN(N2)C1=O)N(C)C(=O)C1CN(C(=O)CCl)C1` (centres unmarked) [Compound 98], the pKd at cyclophilin A (CYPA) is 4.82 to 5.30. Moreover, in test [1], the pEC50 is no less than 6.30.
On to `CC(C)[C@@H](C(=O)N[C@H]1Cc2cc(O)cc(c2)-c2ccc3nc(-c4ccccc4C#N)n(c3c2)CCCOC(=O)[C@@H]2CCCN(N2)C1=O)N(C)C(=O)C1CN(C(=O)CCl)C1` [Compound 167], for which the pKd at cyclophilin A (CYPA) was no less than 5.30. The compound also showed a pEC50 in test [1] of 5.30 to 6.30.
The corresponding values for `CC(C)[C@@H](C(=O)N[C@H]1Cc2cc(O)cc(c2)-c2ccc3nc(C4CCOCC4)n(c3c2)CCCOC(=O)[C@@H]2CCCN(N2)C1=O)N(C)C(=O)C1CN(C(=O)CCl)C1` [Compound 170] are 4.82 to 5.30 and 5.30 to 6.30.
As for `C=CC(=O)N1CCN([C@H](C(=O)N[C@H]2Cc3cc(O)cc(c3)-c3ccc4ccn(c4c3)CCCOC(=O)[C@@H]3CCCN(N3)C2=O)C(C)C)C1=O` [Compound 93], the pKd at cyclophilin A (CYPA) is no less than 5.30. This compound had a pEC50 in test [1] of less than 5.30.
The corresponding values for `C=CC(=O)N1CCN([C@H](C(=O)N[C@H]2Cc3cc(O)cc(c3)-c3ccc4nccc(c4c3)OCCOC(=O)[C@@H]3CCCN(N3)C2=O)C(C)C)C1=O` [Compound 2, (2S)-2-(3-acryloyl-2-oxoimidazolidin-1-yl)-N-((6^3S,4S)-2^5-hydroxy-5,7-dioxo-6^1,6^2,6^3,6^4,6^5,6^6-hexahydro-8,11-dioxa-1(6,4)-quinolina-6(1,3)-pyridazina-2(1,3)-benzenacycloundecaphane-4-yl)-3-methylbutanamide] are no less than 5.30 and less than 5.30.
As to `Cc1nc2ccc3cc2n1CC(O)COC(=O)C1CCCN(N1)C(=O)C(NC(=O)C(C(C)C)N(C)C(=O)C1CN(C(=O)CCl)C1)Cc1cc(O)cc-3c1` (mixture of isomers) [Compound 154], the pKd on cyclophilin A (CYPA) is 4.82 to 5.30. The pEC50 in test [1] was 5.30 to 6.30.
Consider `C=CC(=O)N1CCN(C(C(=O)NC2Cc3cc(O)cc(c3)-c3ccc4c(C#N)cn(c4c3)CCCOC(=O)C3CCCN(N3)C2=O)C(C)C)C1=O` (centres unmarked) [Compound 94], for which the pKd at cyclophilin A (CYPA) is no less than 5.30. The negative-log EC50 (pEC50) in test [1] was 5.30 to 6.30.
